Legend:
Assay type in all cases: in vivo, mouse
[1] = Example 11 HFD mice: body fat reduction, white adipose tissue weight; conditions: oral once daily 10 weeks, 50 mg/kg
Experimental: After adapting 8-week-old male C57b1/6 J mice to the basic diet (AIN-76A diet) for 2 weeks, and consuming Diet Induced Obesity Diet Formulas (D12451) 60 kcal % HFD diet for 2 weeks from 10 weeks of age, and then the test drug was administered when the average body weight reached 28 g or more. The animal breeding room environment of the mouse was maintained in a constant temperature (25±2° C.), constant humidity (50±5%) and a 12-hour photoperiod (light on 07:00˜19:00) in which the light and shade were controlled in an SPF environment. […] The test drug was dispersed in 0.5% Carboxymethyl cellulose (CMC) and administered in a volume of 0.2 ml, and the drug was administered orally by force into the stomach using a metal Zonde for oral administration.
After removing retroperitoneal white adipose tissue and intestines white adipose tissue of each experimental animal, the weight of adipose tissue was calculated.
(§1) Results obtained from various experiments are recorded as mean±standard error of mean (SEM), and significance verification is determined using the student's T-test analysis method. The data were analyzed using one-way ANOVA to determine a statistically significant variance between each group for each final point measured, and statistical significance between each group was determined using the nonparametric Mann-Whitney test and Dunnett's multiple comparison test (IBM SPSS statistics version 19.0 statistic software, Inc, IBM, USA).

[2] = Example 11 HFD mice: oral glucose tolerance test; conditions: oral once daily 10 weeks, 50 mg/kg
Experimental: (§2) After adapting 8-week-old male C57b1/6 J mice to the basic diet (AIN-76A diet) for 2 weeks, and consuming Diet Induced Obesity Diet Formulas (D12451) 60 kcal % HFD diet for 2 weeks from 10 weeks of age, and then the test drug was administered when the average body weight reached 28 g or more. The animal breeding room environment of the mouse was maintained in a constant temperature (25±2° C.), constant humidity (50±5%) and a 12-hour photoperiod (light on 07:00˜19:00) in which the light and shade were controlled in an SPF environment. […]
[…] Blood to be used for blood glucose measurement was collected from the tail vein of a mouse, and blood glucose was measured using a serum analyzer (Accutrend plus GCTL Cobas Roche, Germany).
as §1

C/EBP-α mRNA = test: Example 11 HFD mice: adipose tissue C/EBP-α mRNA analysis; conditions: oral once daily 10 weeks, 50 mg/kg
Experimental: as §2
RNA was extracted from tissues using RNAsolB (Tel-Test) solution, and cDNA and real-time PCR analysis were performed using One-step SYBR Green PCR kit (AB science). […] Real time quantitative PCR was performed using the Applied Biosystems 7500 Real-Time PCR system (Applied Biosystems, USA).
as §1

PPAR-gamma mRNA = test: Example 12 HFD mice: adipose tissue PPAR-gamma mRNA analysis; conditions: adipose tissue of HFD mice, oral once daily for 10 weeks, chiisanogenin 50 mg/kg, Garcinia cambogia extract 200 mg/kg, combination 50 + 150 mg/kg, Met 50 mg/kg
Experimental: The test drug was dispersed in 0.5% Carboxymethyl cellulose (CMC) and administered in a volume of 0.2 ml, and the drug was administered orally by force into the stomach using a metal Zonde for oral administration. RNA was extracted from tissues using RNAsolB (Tel-Test) solution, and cDNA and real-time PCR analysis were performed using One-step SYBR Green PCR kit (AB science). From the prepared cDNA, a FAM probe of [NT] ID NO: 16) sequence was used to amplify PPAR-gamma mRNA, and a VIC probe of [NT] ID NO: 15) sequence was used to amplify GAPDH mRNA as an intra control. Real time quantitative PCR was performed using the Applied Biosystems 7500 Real-Time PCR system (Applied Biosystems, USA). Results obtained from various experiments are recorded as mean±standard error of mean (SEM), and significance verification is determined using the student's T-test analysis method. The data were analyzed using one-way ANOVA to determine a statistically significant variance between each group for each final point measured, and statistical significance between each group was determined using the nonparametric Mann-Whitney test and Dunnett's multiple comparison test (IBM SPSS statistics version 19.0 statistic software, Inc, IBM, USA).

Q: With `CN(C)C(=N)N=C(N)N` [Met, Metformin] as the compound, how does the “Inhibition Rate (intestines WAT)” value [1] read?
A: Its value is 46%.

Q: What about the “Inhibition Rate (retroperitoneal white adipose tissue)” value [1] of the same compound?
A: Its value is 12%.

Q: What about the “Intestines WAT” value [1] of the same compound?
A: Its value is 0.55 ± 0.05 g.

Q: What about the “Retroperitoneal white adipose tissue” value [1] of the same compound?
A: Its value is 0.89 ± 0.06 g.

Q: What about the “Inhibition Rate (OGTT)” value [2] of the same compound?
A: The value was 23%.

Q: What about the “OGTT (30 min-0 min, mg/dL)” value ([2]; glucose 1 g/kg) of the same compound?
A: Its value is 148 ± 18.50^ mg/dL.

Q: What about the “Inhibition Rate (C/EBP-α mRNA)” value (C/EBP-α mRNA) of the same compound?
A: The value was 75%.

Q: What about the “C/EBP-α mRNA expression in adipose tissue” value (C/EBP-α mRNA; GAPDH control) of the same compound?
A: The value was 1.153 ± 0.320.

Q: What about the “PPAR-γ mRNA Inhibition Rate (%)” value (PPAR-gamma mRNA) of the same compound?
A: Its value is 80%.

Q: What about the “PPAR-γ mRNA, mean ± standard error” value (PPAR-gamma mRNA; real-time PCR vs GAPDH) of the same compound?
A: The value was 1.235 ± 0.42.
